Experimental data reported in patent publication US9045531B2, “HLA-binding peptide, precursor thereof, and DNA fragment and recombinant vector coding for said HLA-binding peptide” (NEC CORPORATION, priority 2006, dated 2015).
No end group written: not given here.

What was measured:
[1] = tested on: HLA-A24 molecule (product of the HLA-A*2402 gene); experiment: Experiment of binding peptide to HLA-A2402 molecule (C1R-A24 cells, flow cytometry); parameters: species or system human; settings: HLA-A24 (HLA-A*2402)
Experimental: The ability of a peptide to bind to an HLA-A24 molecule, which is a product of the HLA-A*2402 gene, was measured using C1R-A24 cells expressing the HLA-A24 gene (cells produced by Professor Masafumi Takiguchi, Kumamoto University being supplied with permission).
After neutralization, purified β2m was added to C1R-A24 cells, the obtained product was added to serial dilutions of a peptide, and incubated on ice for 4 hours.
Subsequently, the MHC-pep count per C1R-A24 cell (proportional to the strength of fluorescence of the above-mentioned fluorescent antibody) was quantitatively measured using a FACScan fluorescence-activated cell sorter (Becton Dickinson Biosciences). A binding dissociation constant Kd value between the HLA-A24 molecule and the peptide was calculated from the average strength of fluorescence per cell by a published method (Udaka et al., Immunogenetics, 51, 816-828, 2000).

[2] = tested on: human HLA-A type molecule; experiment: Binding experiments, summary statement for HLA-A type molecules; settings: summary of the binding experiments
Experimental: The ability of a peptide to bind to an HLA-A2 molecule, which is a product of the HLA-A*0201 gene, was measured using strain JY cells (obtained from ATCC (American Type Culture Collection)) expressing the HLA-A*0201.
The ability of a peptide to bind to an HLA-A2 molecule, which is a product of the HLA-A*0206 gene, was measured using RA2.6 cells (cell strain newly prepared in Kochi University) in which cDNA of the HLA-A*0206 gene is expressed in RAMS cells, which are mouse TAP peptide transporter deficient cells.

Sequence	Binding Experiment Data (−log Kd value) [1]	binding to a human HLA-A type molecule (result in words) [2]
ATNPIVPSF [SEQ ID NO: 6]	7.564	experimentally confirmed to bind
ATNPVVPSF [SEQ ID NO: 7]	7.808	experimentally confirmed to bind
ATSPIVPSF [SEQ ID NO: 9]	7.802	experimentally confirmed to bind
DMNNEGSYF [SEQ ID NO: 18]	5.374	experimentally confirmed to bind
DMSNEGSYF [SEQ ID NO: 16]	–	experimentally confirmed to bind
FQGRGVFEL [SEQ ID NO: 48]	–	experimentally confirmed to bind
GQISVQPTF [SEQ ID NO: 5]	7.191	experimentally confirmed to bind
IFLARSALI [SEQ ID NO: 4]	8.012	experimentally confirmed to bind
IYKRRDGKW [SEQ ID NO: 17]	7.326	experimentally confirmed to bind
IYKRREGKW [SEQ ID NO: 13]	7.25	experimentally confirmed to bind
IYRRRDGKW [SEQ ID NO: 10]	7.497	experimentally confirmed to bind
LIFLARSAL [SEQ ID NO: 52, LIFLARSAL]	–	experimentally confirmed to bind
LILYDKEEI [SEQ ID NO: 51]	–	experimentally confirmed to bind
LQNSQVFSL [SEQ ID NO: 49]	–	experimentally confirmed to bind
NLPFERATI [SEQ ID NO: 8]	7.764	–
NLPFERATI [SEQ ID NO: 25]	–	experimentally confirmed to bind
RLIQNSITI [SEQ ID NO: 3]	–	experimentally confirmed to bind
RLLQNSQVF [SEQ ID NO: 2]	6.915	experimentally confirmed to bind
RMVGGIGRF [SEQ ID NO: 14]	7.543	experimentally confirmed to bind
RMVSGIGRF [SEQ ID NO: 15]	7.436	experimentally confirmed to bind
SLPFERATI [SEQ ID NO: 11]	7.719	experimentally confirmed to bind
VGIDPFRLL [SEQ ID NO: 12]	5.12	experimentally confirmed to bind
WMACHSAAF [SEQ ID NO: 1]	–	experimentally confirmed to bind
YLEEHPSAG [SEQ ID NO: 21]	–	experimentally confirmed to bind
YLEENPSAG [SEQ ID NO: 26]	–	experimentally confirmed to bind
